The structures appear in SMILES notation. Where only a bound is given, the exact number is not on record here.

One data set deals with DOR (Homo sapiens, UniProt P41143). Briefly: DOR-Tango β-arrestin2 recruitment, dose–response. It counts as cell-based. Conditions: for reversal of the agonist activity of EIPA: 10 μM EIPA, increasing antagonist; for agonist / allosteric activity at DOR: 10 μM modulator, in the presence or absence of DADLE; for effect of extracellular Na+ on agonistic activity: reducing extracellular Na+ to 30 mM. On the technique in general: Recruitment of arrestin is a read-out of receptor activation apart from second messengers.

The subject of another data set is different GPCRs. The note with it: cited from earlier work.
The target in a further data set is DOR D95A2.50 (Homo sapiens, UniProt P41143, D95A). Briefly: Mutant DOR-Tango β-arrestin2 recruitment. It counts as cell-based. The note with it: 10 μM modulator.
The test system of data set [1] is gonadotropin-releasing hormone receptor (GnRHR). The note with it: 10 μM; cited from earlier work.
The target in a further data set is DOR chimera KOR-TM1 (Homo sapiens, UniProt P41143+P41145, A58V/A61V/C60F/G73V/L55V/L65V/V68S/V75I). Briefly: Chimera DOR-Tango β-arrestin2 recruitment. It counts as cell-based. Conditions: 10 μM modulator.
In the next data set the target is DOR WT (Homo sapiens, UniProt P41143). Briefly: 3H-DADLE competition binding. The note with it: binding experiment in allosteric mode.
The next data set has as its system cells. Briefly: Toxicity to cells. Conditions: at 10 μM. Format: cell-based, human.
Another data set relates to rat mu-opioid. The note with it: ref Tracey et al.[45]; cited from earlier work.
Another data set has as its system mouse delta-opioid. Conditions: ref Tracey et al.[45]; cited from earlier work.
A further data set deals with kappa-opioid receptor. Conditions: ref Tracey et al.[45]; cited from earlier work.
The target of another data set is DOR N131V3.35 (Homo sapiens, UniProt P41143, N131V). The experiment in a line: Mutant DOR-Tango β-arrestin2 recruitment. The note with it: 10 μM. It counts as cell-based.
Another data set addresses DOR S135A3.39 (Homo sapiens, UniProt P41143, S135A). The experiment in a line: Mutant DOR-Tango β-arrestin2 recruitment. It counts as cell-based. The note with it: 10 μM.
A further data set deals with T1, M4 muscarinic receptor (Homo sapiens, UniProt P08173).
T1 sequence (P08173 1-479): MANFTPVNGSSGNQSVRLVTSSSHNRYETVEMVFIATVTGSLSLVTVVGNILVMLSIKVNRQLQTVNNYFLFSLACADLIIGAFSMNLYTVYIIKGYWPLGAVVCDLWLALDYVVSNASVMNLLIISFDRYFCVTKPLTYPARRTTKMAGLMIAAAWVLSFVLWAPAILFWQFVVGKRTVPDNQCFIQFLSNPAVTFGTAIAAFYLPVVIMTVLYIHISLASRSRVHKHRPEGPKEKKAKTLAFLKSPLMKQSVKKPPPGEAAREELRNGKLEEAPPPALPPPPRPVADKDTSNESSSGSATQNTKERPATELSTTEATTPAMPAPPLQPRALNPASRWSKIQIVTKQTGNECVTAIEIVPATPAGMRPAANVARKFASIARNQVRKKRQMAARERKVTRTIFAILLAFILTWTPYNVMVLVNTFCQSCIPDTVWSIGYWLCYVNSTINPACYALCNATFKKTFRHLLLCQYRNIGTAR
Briefly: M4-Tango β-arrestin2 recruitment, carbachol dose–response. Conditions: external Na+ increased to 200 mM. It counts as cell-based.

For the next data set, the target named is T2, M5 muscarinic receptor (Homo sapiens, UniProt P08912).
T2 sequence (P08912 1-532): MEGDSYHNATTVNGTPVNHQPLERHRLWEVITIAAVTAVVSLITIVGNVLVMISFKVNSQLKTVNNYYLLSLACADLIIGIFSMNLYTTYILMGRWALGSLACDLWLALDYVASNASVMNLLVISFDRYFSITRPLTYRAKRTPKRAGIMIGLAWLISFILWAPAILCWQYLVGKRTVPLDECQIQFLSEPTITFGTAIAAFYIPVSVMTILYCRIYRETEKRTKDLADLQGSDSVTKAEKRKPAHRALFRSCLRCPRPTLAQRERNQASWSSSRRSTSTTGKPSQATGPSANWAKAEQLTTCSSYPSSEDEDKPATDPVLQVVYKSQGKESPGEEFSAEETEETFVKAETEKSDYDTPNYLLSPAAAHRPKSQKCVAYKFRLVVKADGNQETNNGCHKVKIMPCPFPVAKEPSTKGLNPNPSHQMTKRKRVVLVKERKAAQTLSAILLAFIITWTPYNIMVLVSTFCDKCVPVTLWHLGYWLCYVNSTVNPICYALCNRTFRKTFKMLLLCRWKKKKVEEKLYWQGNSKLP
Briefly: M5-Tango β-arrestin2 recruitment, carbachol dose–response. Format: cell-based. The note with it: external Na+ increased to 200 mM.

A further data set addresses T3, M2 muscarinic receptor (Homo sapiens, UniProt P08172).
T3 sequence (P08172 1-466): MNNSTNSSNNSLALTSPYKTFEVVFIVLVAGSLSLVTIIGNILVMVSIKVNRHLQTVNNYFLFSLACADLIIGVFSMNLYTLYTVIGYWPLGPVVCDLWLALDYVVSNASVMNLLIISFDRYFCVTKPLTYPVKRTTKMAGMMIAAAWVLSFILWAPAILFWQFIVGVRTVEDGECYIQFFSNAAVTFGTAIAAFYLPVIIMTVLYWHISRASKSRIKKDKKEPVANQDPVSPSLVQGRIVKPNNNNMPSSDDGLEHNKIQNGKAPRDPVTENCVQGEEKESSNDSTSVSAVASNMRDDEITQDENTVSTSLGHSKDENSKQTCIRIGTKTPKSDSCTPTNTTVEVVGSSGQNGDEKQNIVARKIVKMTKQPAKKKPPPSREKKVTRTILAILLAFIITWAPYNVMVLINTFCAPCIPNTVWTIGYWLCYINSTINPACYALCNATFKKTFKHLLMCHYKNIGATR
The experiment in a line: M2-Tango β-arrestin2 recruitment, carbachol dose–response. Format: cell-based. The note with it: external Na+ increased to 200 mM.

DOR, sequence (P41143 whole entry): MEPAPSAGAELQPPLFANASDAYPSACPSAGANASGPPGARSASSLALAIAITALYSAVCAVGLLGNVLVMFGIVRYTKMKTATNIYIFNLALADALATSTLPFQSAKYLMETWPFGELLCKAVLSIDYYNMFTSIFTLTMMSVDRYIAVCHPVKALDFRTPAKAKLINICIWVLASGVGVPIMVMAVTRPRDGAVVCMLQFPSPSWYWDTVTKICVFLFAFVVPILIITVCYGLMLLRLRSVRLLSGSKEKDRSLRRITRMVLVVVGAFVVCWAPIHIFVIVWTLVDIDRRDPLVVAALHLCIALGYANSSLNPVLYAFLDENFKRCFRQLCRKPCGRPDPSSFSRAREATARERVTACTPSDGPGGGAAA
DOR D95A2.50, sequence (P41143 whole entry D95A): as the sequence (P41143 whole entry) above, with D95A counted along it
DOR WT, sequence (P41143 whole entry): as the sequence (P41143 whole entry) above
DOR S135A3.39, sequence (P41143 whole entry S135A, one chain of several): as the sequence (P41143 whole entry) above, with S135A counted along it
DOR N131V3.35, sequence (P41143 whole entry N131V, one chain of several): as the sequence (P41143 whole entry) above, with N131V counted along it

Take `NC(N)=Nc1ccc2[nH]c3c(c2c1)C[C@@]1(O)[C@H]2Cc4ccc(O)c5c4[C@@]1(CCN2CC1CC1)[C@H]3O5` [5′-GNTI]: the “reversal of the agonist activity of EIPA” value on DOR is reported as “reversed”.

Consider `NC(N)=Nc1ccc2c3c([nH]c2c1)[C@@H]1Oc2c(O)ccc4c2[C@@]12CCN(CC1CC1)[C@H](C4)[C@]2(O)C3` [6′-GNTI], for which, at DOR, the “reversal of the agonist activity of EIPA” value was “reversed”.

Regarding `N=C(N)NC(=O)c1nc(Cl)c(N)nc1N` [Amiloride, amiloride], the affinity in the data set with different GPCRs (allosteric modulation on different GPCRs) is more than 10 µM. For the same compound, the “concentration with activity in biophysical studies” value in the data set with different GPCRs (most biophysical studies using amiloride) is more than 100 µM. In addition, the “agonist / allosteric activity at DOR” value on DOR is recorded as “no activity”.

As for `CN(C)c1nc(N)c(C(=O)NC(=N)N)nc1Cl` [DMA, 5-(N,N-dimethyl)amiloride], the “agonist / allosteric activity at DOR” value on DOR is reported as “lack of DMA activity”.

Consider `CCN(c1nc(N)c(C(=O)N=C(N)N)nc1Cl)C(C)C` [EIPA, 5-(N-ethyl-N-isopropyl)-amiloride], for which the “agonist / allosteric activity at DOR” value on DOR was “significant agonist and positive allosteric modulation (ago-PAM)”.

Regarding `NC(N)=NC(=O)c1nc(Cl)c(N2CCCCCC2)nc1N` [HMA, 5-(N,N-hexamethylene)amiloride], at DOR D95A2.50, the “modulator properties at mutant” value is on record as “almost complete loss of original properties”. The functional effect result in [1] is “modest effect”. For the same compound, the “effect of extracellular Na+ on agonistic activity” value at DOR was “slightly increases”. Also, the “allosteric modulation (PAM) at chimera” value at DOR chimera KOR-TM1 was “loss of allosteric modulation (PAM)”.

Consider `CC(C)CN(C)c1nc(N)c(C(=O)N=C(N)N)nc1Cl` [MIA, 5-(N-methyl-N-isobutyl)amiloride], for which the “modulator properties at mutant” value at DOR D95A2.50 is given as “almost complete loss of original properties”. Besides, at DOR, the “agonist / allosteric activity at DOR” value is recorded as “best ago-PAM” and the “effect of extracellular Na+ on agonistic activity” value is “slightly increases”. The “effect on the Ki of naltrindole toward 3H-DADLE” value on DOR WT was “no effect”. Further, the “allosteric modulation (PAM) at chimera” value at DOR chimera KOR-TM1 was “loss of allosteric modulation (PAM)”.

With `Oc1ccc2c3c1O[C@H]1c4[nH]c5ccccc5c4C[C@@]4(O)[C@@H](C2)N(CC2CC2)CC[C@]314` [Naltrindole, naltrindole], the “reversal of the agonist activity of EIPA” value on DOR is listed as “reversed”.

As to `NC(=Nc1ccccc1)NC(=O)c1nc(Cl)c(N)nc1N` [Phenamil, phenamil], the “agonist / allosteric activity at DOR” value at DOR is “inactive”.

Turning to `N=C(N)NC(=O)c1cnn(-c2cccc3ncccc23)c1C1CC1` [Zoniporide, zoniporide], in the data set on cells, the toxicity result is given as “no toxicity”. For the same compound, at DOR D95A2.50, the “modulator properties at mutant” value was “almost complete loss of original properties”. The affinity in the data set on rat mu-opioid is 60 nM; in the data set with mouse delta-opioid, 238 nM. Also, the “agonist / allosteric activity at DOR” value at DOR is reported as “best PAM without intrinsic agonist activity”. In addition, the interaction entry in the data set with kappa-opioid receptor is recorded as “no detectable interaction”. Moreover, the “ago-PAM properties at mutant” value at DOR N131V3.35 and at DOR S135A3.39 was “increase in the ago-PAM properties” each time. Also, at DOR chimera KOR-TM1, the “allosteric modulation (PAM) at chimera” value was “loss of allosteric modulation (PAM)”.

As to `C[N+](C)(C)CCOC(N)=O` [carbachol], the increase of efficacy result on M4 muscarinic receptor is “more than 3 fold”; at M5 muscarinic receptor, “weakly increasing efficacy”; on M2 muscarinic receptor it was “more than 3 fold”.
